Measured values taken from patent US20110071108A1, “Beta-Cyclodextrin Derivatives as Antibacterial Agents” (Pinnacle Pharmaceuticals, Inc., priority 2005, published 2011).

Tests used:
Assay in all cases: Bacterial panel testing, MIC by broth microdilution
Type in all cases: cell-based
Details in all cases: 20-24 hours growth
[1] = tested on: Pseudomonas aeruginosa
Description: (§1) One to three colonies of bacteria were picked from an Mueller-Hinton or Brain Heart infusion agar plate (depending on the bacterial strain) and transferred to 3 ml Mueller-Hinton broth or Brain Heart infusion media (depending on the bacterial strain). Bacteria were allowed to grow for 2-4 hours in an incubator at 37° C. Bacteria-inoculated media were dispersed in 0.9% saline to match McFarland standard density. 100 μl standardized inoculation was added to 20 ml media (dilution 1). 10 μl of the new dilution was added to 990 μl media and mixed (dilution 2). 10 μl of dilution 2 was spread on an agar plate and allowed to grow overnight. Colonies were then […].
(§2) Test compound was diluted to 10 μg/ml in dimethylsulfoxide. Four μl of Rifampicin antibiotic was loaded into row H, column 2.
(§3) All wells were then filled with 100 μl of inoculated media (dilution 1 from Example 1). A further 100 μl of the inoculated media was then added to column 2 and the contents are pipetted to thoroughly mix the contents. A full 100 μl was then transferred from column 2 and mixed into column 3. This process was continued from left to right until columns 2-12 were serially diluted, and the final draw from column 12 was discarded. The plates were covered with 3M sealing tape (plates containing Enterococcus faecium were sealed with Air Pore sealing tape) and allowed to grow for 20-24 hours. Cytotoxic wells (clear wells) are then scored and the potency of the compound was determined.

[2] = tested on: Salmonella choleraesuis
Description: as §1, §2, §3

[3] = tested on: Eschericia coli
Description: as §1, §2, §3

| SMILES | MIC PA [1] [mg/L] | MIC SC [2] [mg/L] | MIC EC [3] [mg/L] |
| --- | --- | --- | --- |
| OC1C2OC(CNCCC3=CCCCC3)C(OC3OC(CNCCC4=CCCCC4)C(OC4OC(CNCCC5=CCCCC5)C(OC5OC(CNCCC6=CCCCC6)C(OC6OC(CNCCC7=CCCCC7)C(OC7OC(CNCCC8=CCCCC8)C(OC8OC(CNCCC9=CCCCC9)C(O2)C(O)C8O)C(O)C7O)C(O)C6O)C(O)C5O)C(O)C4O)C(O)C3O)C1O (stereo not drawn) | >200 |  |  |
| Cc1cc(NCC2OC3OC4C(CNc5ccc(C(C)C)c(C)c5)OC(OC5C(CNc6ccc(C(C)C)c(C)c6)OC(OC6C(CNc7ccc(C(C)C)c(C)c7)OC(OC7C(CNc8ccc(C(C)C)c(C)c8)OC(OC8C(CNc9ccc(C(C)C)c(C)c9)OC(OC9C(CNc%10ccc(C(C)C)c(C)c%10)OC(OC2C(O)C3O)C(O)C9O)C(O)C8O)C(O)C7O)C(O)C6O)C(O)C5O)C(O)C4O)ccc1C(C)C (stereo not drawn) | >200 | >200 | >200 |
| COc1cccc(CCNCC2OC3OC4C(CNCCc5cccc(OC)c5)OC(OC5C(CNCCc6cccc(OC)c6)OC(OC6C(CNCCc7cccc(OC)c7)OC(OC7C(CNCCc8cccc(OC)c8)OC(OC8C(CNCCc9cccc(OC)c9)OC(OC9C(CNCCc%10cccc(OC)c%10)OC(OC2C(O)C3O)C(O)C9O)C(O)C8O)C(O)C7O)C(O)C6O)C(O)C5O)C(O)C4O)c1 (stereo not drawn) | >200 |  |  |
| Oc1cccnc1NCC1OC2OC3C(CNc4ncccc4O)OC(OC4C(CNc5ncccc5O)OC(OC5C(CNc6ncccc6O)OC(OC6C(CNc7ncccc7O)OC(OC7C(CNc8ncccc8O)OC(OC8C(CNc9ncccc9O)OC(OC1C(O)C2O)C(O)C8O)C(O)C7O)C(O)C6O)C(O)C5O)C(O)C4O)C(O)C3O (stereo not drawn) | >200 | >200 | >200 |
| C[C@H](NCC1OC2OC3C(CN[C@@H](C)c4ccccc4)OC(OC4C(CN[C@@H](C)c5ccccc5)OC(OC5C(CN[C@@H](C)c6ccccc6)OC(OC6C(CN[C@@H](C)c7ccccc7)OC(OC7C(CN[C@@H](C)c8ccccc8)OC(OC8C(CN[C@@H](C)c9ccccc9)OC(OC1C(O)C2O)C(O)C8O)C(O)C7O)C(O)C6O)C(O)C5O)C(O)C4O)C(O)C3O)c1ccccc1 (stereo partly drawn) | >200 | >200 |  |
| OC1C2OC(CNCc3ccc(Cl)cc3)C(OC3OC(CNCc4ccc(Cl)cc4)C(OC4OC(CNCc5ccc(Cl)cc5)C(OC5OC(CNCc6ccc(Cl)cc6)C(OC6OC(CNCc7ccc(Cl)cc7)C(OC7OC(CNCc8ccc(Cl)cc8)C(OC8OC(CNCc9ccc(Cl)cc9)C(O2)C(O)C8O)C(O)C7O)C(O)C6O)C(O)C5O)C(O)C4O)C(O)C3O)C1O (stereo not drawn) | >200 | >200 |  |
| CCCCCCCCCCCCCCCC[N+]12CC[N+](CC3OC4OC5C(C[N+]67CC[N+](CCCCCCCCCCCCCCCC)(CC6)CC7)OC(OC6C(C[N+]78CC[N+](CCCCCCCCCCCCCCCC)(CC7)CC8)OC(OC7C(C[N+]89CC[N+](CCCCCCCCCCCCCCCC)(CC8)CC9)OC(OC8C(C[N+]9%10CC[N+](CCCCCCCCCCCCCCCC)(CC9)CC%10)OC(OC9C(C[N+]%10%11CC[N+](CCCCCCCCCCCCCCCC)(CC%10)CC%11)OC(OC%10C(C[N+]%11%12CC[N+](CCCCCCCCCCCCCCCC)(CC%11)CC%12)OC(OC3C(O)C4O)C(O)C%10O)C(O)C9O)C(O)C8O)C(O)C7O)C(O)C6O)C(O)C5O)(CC1)CC2.[Br-].[Br-].[Br-].[Br-].[Br-].[Br-].[Br-].[Br-].[Br-].[Br-].[Br-].[Br-].[Br-].[Br-] (stereo not drawn) | >200 |  |  |
| OC1C2OC(CNCc3ccc(Br)cc3)C(OC3OC(CNCc4ccc(Br)cc4)C(OC4OC(CNCc5ccc(Br)cc5)C(OC5OC(CNCc6ccc(Br)cc6)C(OC6OC(CNCc7ccc(Br)cc7)C(OC7OC(CNCc8ccc(Br)cc8)C(OC8OC(CNCc9ccc(Br)cc9)C(O2)C(O)C8O)C(O)C7O)C(O)C6O)C(O)C5O)C(O)C4O)C(O)C3O)C1O (stereo not drawn) |  |  | >200 |
| CC(C)CCCCC(C)NCC1OC2OC3C(CNC(C)CCCCC(C)C)OC(OC4C(CNC(C)CCCCC(C)C)OC(OC5C(CNC(C)CCCCC(C)C)OC(OC6C(CNC(C)CCCCC(C)C)OC(OC7C(CNC(C)CCCCC(C)C)OC(OC8C(CNC(C)CCCCC(C)C)OC(OC1C(O)C2O)C(O)C8O)C(O)C7O)C(O)C6O)C(O)C5O)C(O)C4O)C(O)C3O (stereo not drawn) | >200 |  |  |
